Data: article PMC8097418, “In Vitro and In Vivo Antibacterial Activities of a Novel Quinolone Compound, OPS-2071, against Clostridioides difficile” (Antimicrobial Agents and Chemotherapy, 2021)
In brackets after ≈: the same amount, converted by molar mass. Like-named read-outs stand apart in the source and are kept apart here.

What was measured:
[1] = tested on: 54 clinically isolated C. difficile strains; assay: MIC by agar dilution against 54 clinically isolated strains; type: cell-based, Clostridioides difficile; details: Clostridioides difficile, 54 clinically isolated C. difficile strains; for MIC50: read-out: MIC50
Experimental: (§1) MICs obtained using the agar dilution method were determined visually as described for the CLSI method ([41], [42]). MICs obtained using the broth dilution method were determined visually based on the CLSI method except for using Gifu anaerobic medium (GAM) broth instead of supplemented Brucella broth ([41], [42]).

[2] = tested on: hypervirulent and nonhypervirulent strains of C. difficile (62 strains); assay: MIC distribution against 20 hypervirulent and 42 nonhypervirulent strains; type: cell-based, Clostridioides difficile
C. difficile ATCC 700057 [3] = assay: Killing kinetics (time-kill curves); type: cell-based, Clostridioides difficile; details: time-kill, up to 48 h
Experimental: The test tubes were incubated for 48 h. The CFU/ml values of the bacterial suspensions were calculated at 0, 2, 4, 6, 24, and 48 h by culturing 0.1-ml samples of serial 10-fold dilutions on GAM agar plates at 37°C under anaerobic conditions and then counting the number of growing colonies. The CFU/ml value at each time point is from one sample of datum.

[4] = tested on: 10 clinical isolates of C. difficile; assay: MIC (broth dilution) and MBC testing, 10 clinical isolates; type: cell-based, Clostridioides difficile; details: for MBC Range: >99.9% reduction within 48 h; for MIC90 / MBC: Clostridioides difficile; for MBC: read-out: MBC90
Experimental: In this test, MIC testing was performed using the broth dilution method as recommended in the CLSI ([41]). After the MICs were determined, 10 μl of the bacterial suspension from the MIC test tube was inoculated onto agar plates and incubated at 37°C. The bacterial colonies were then counted and bacterial numbers were calculated. The MBC was considered to be the lowest concentration of the antibiotics that prevented growth and reduced the inoculum by >99.9% within 48 h, irrespective of counts of survivors at higher antibiotic concentrations.

C. difficile ATCC 700057 [5] = assay: MIC by broth dilution (GAM broth); type: cell-based, Clostridioides difficile
Experimental: as §1

C. difficile ATCC 700057 [6] = assay: Mutant prevention concentration; type: cell-based, Clostridioides difficile; details: approximately 10^10 CFU, 3 days
Experimental: The mutant prevention concentration was measured by plating approximately 10^10 CFU of C. difficile ATCC 700057 onto a GAM agar plate containing the test agent. Inoculated plates were incubated for 3 days, and the MIC for each antibiotic that prevented the growth of colonies was determined using the agar dilution method as described by the CLSI ([41]). The MIC values of grown colonies were compared to determine which bacteria were resistant. The MPC was defined as the lowest concentration that prevented the growth of resistant bacteria.

C. difficile ATCC 700057 [7] = assay: MIC by agar dilution (CLSI) against quality control strain; type: cell-based, Clostridioides difficile
Experimental: as §1

C. difficile ATCC 700057 [8] = assay: Postantibiotic effect (PAE); type: cell-based, Clostridioides difficile; details: for Postantibiotic effect: 1 h exposure
Experimental: C. difficile ATCC 700057 was cultured in GAM agar and adjusted in GAM broth to approximately 10^6 CFU/ml. The bacterial suspensions were preincubated at 37°C for 1 h. […] After preincubation, test and reference solutions were added to each bacterial suspension in a test tube, and the suspensions were cultured for 1 h. After exposure to the test compounds, bacterial suspensions were washed with GAM broth and cultured for 6 h. […] The PAE was defined according to Craig and Gudmundsson as PAE = T − C, where T is the time required for the viable counts of the exposed bacteria to increase by 1 log10 above the counts observed immediately after washing, and C is the corresponding time for the antibiotic unexposed controls ([44]).

[9] = cited from earlier work
C. difficile ATCC 700057 [10] = assay: Effect of pH on MIC (agar dilution); type: cell-based, Clostridioides difficile; details: Clostridioides difficile
C. difficile ATCC 43255 [11] = assay: MIC against the infection strain; type: cell-based, Clostridioides difficile
C. difficile ATCC 43255 [12] = assay: In vivo hamster model of C. difficile infection; design: species or system golden Syrian hamsters
Experimental: C. difficile ATCC 43255 was cultured on GAM agar, and a bacterial suspension was prepared in saline ([26]). […] Hamsters were infected using oral gavage with 0.5 ml of suspension containing approximately 10^6 CFU of C. difficile (day −1). The next day, the animals were administered clindamycin phosphate (0.2 mg/ml in water) by oral gavage at a dose of 5 ml/kg of body weight, for a final dose of 1 mg/kg (day 0). The animals were allocated to the test groups using a stratified randomization method based on the body weight of each infected animal. The test compounds were administered by oral gavage once daily for 5 days (OPS-2071, 0.008 to 1 mg/kg; fidaxomicin, 0.04 mg/kg to 5 mg/kg; vancomycin, 0.04 to 5 mg/kg [5-fold dilution]). Infected control animals were administered 5% (wt/vol) gum arabic solution by oral gavage. […] The cecal contents of dead animals were tested for toxin A and toxin B using C.Diff Quik Chek Complete (Abbott Diagnostics Medical Co., Ltd., Tokyo, Japan) to confirm that the death of the animal was due to CDI.
The statistical significance of OPS-2071, fidaxomicin, and vancomycin treatment was analyzed at all doses against vehicle. Survival curves were estimated for each group using the Kaplan-Meier method. Differences in survival homogeneity in each group were evaluated with a log-rank test with Dunnett-type (two-sided) comparison.

C. difficile ATCC 700057 [13] = type: cell-based, Clostridioides difficile
C. difficile ATCC 43255 [14] = tested on: C. difficile ATCC 43255; design: method as in PMID 22869573; details: cited from earlier work
[15] = Clostridioides difficile, hypervirulent strains (n = 20)
[16] = Clostridioides difficile, nonhypervirulent strains (n = 42)
[17] = nonhypervirulent strains (n = 42)
[18] = 10 clinical isolates, broth dilution
[19] = Clostridioides difficile, ATCC700057, broth dilution, retested for the time-kill assay, read-out: MIC

Cc1ncc([N+](=O)[O-])n1CCO [Metronidazole]
MIC90 [1]: 4 µg/mL (≈ 23.4 µM) | MIC50 [1]: 2 µg/mL (≈ 11.7 µM) | MIC50 [2, 15]: 0.5 µg/mL (≈ 2.92 µM) | MIC90 [2, 15]: 1 µg/mL (≈ 5.84 µM) | MIC50 [2, 16]: 0.25 µg/mL (≈ 1.46 µM) | MIC90 [2, 16]: 0.5 µg/mL (≈ 2.92 µM) | Cumulative percentage of strains ([2]; Non-hyp (n = 42), MIC […] μg/ml): 100% | MIC range ([2]; hypervirulent strains (n = 20)): 0.25 to 16 µg/mL | MIC range [2, 17]: 0.25 to 1 µg/mL | concentration needed for an undetectable level to be reached (C. difficile ATCC 700057 [3]): over 2 fold MIC | MBC Range ([4]; 10 clinical isolates): 1 to 4 µg/mL | MIC range [4, 18]: 1 to 4 µg/mL | MIC90 ([4]; 10 clinical isolates, broth dilution, read-out: MIC90): 4 µg/mL (≈ 23.4 µM) | MBC ([4]; 10 clinical isolates): 4 µg/mL (≈ 23.4 µM) | MIC (C. difficile ATCC 700057 [5]; [19]): 0.5 µg/mL (≈ 2.92 µM)

CN[C@H](CC(C)C)C(=O)N[C@H]1C(=O)N[C@@H](CC(N)=O)C(=O)N[C@H]2C(=O)N[C@H]3C(=O)N[C@H](C(=O)N[C@H](C(=O)O)c4cc(O)cc(O)c4-c4cc3ccc4O)[C@H](O)c3ccc(c(Cl)c3)Oc3cc2cc(c3O[C@@H]2O[C@H](CO)[C@@H](O)[C@H](O)[C@H]2O[C@H]2C[C@](C)(N)[C@H](O)[C@H](C)O2)Oc2ccc(cc2Cl)[C@H]1O [Vancomycin]
mutant prevention concentration (MPC) (C. difficile ATCC 700057 [6]): 8 µg/mL | MIC90 [1]: 4 µg/mL (≈ 2.76 µM) | MIC50 [1]: 2 µg/mL (≈ 1.38 µM) | MIC50 ([2]; Clostridioides difficile, hypervirulent strains (n = 20), read-out: MIC50): 1 µg/mL (≈ 0.69 µM) | MIC90 ([2]; Clostridioides difficile, hypervirulent strains (n = 20), read-out: MIC90): 1 µg/mL (≈ 0.69 µM) | MIC90 ([2]; Clostridioides difficile, nonhypervirulent strains (n = 42), read-out: MIC90): 2 µg/mL (≈ 1.38 µM) | MIC range ([2]; hypervirulent strains (n = 20)): 1 to 2 µg/mL | MIC50 [2, 17]: 1 µg/mL (≈ 0.69 µM) | MIC range [2, 17]: 0.5 to 4 µg/mL | MIC (C. difficile ATCC 700057 [7]; Clostridioides difficile, ATCC700057, quality control strain ATCC 700057, CLSI method, read-out: MIC): 2 µg/mL (≈ 1.38 µM) | MIC (C. difficile ATCC 700057 [7]; agar dilution, determined for the spontaneous resistance assay): 2 µg/mL (≈ 1.38 µM) | PAEs at 4- and 8-fold the MIC (C. difficile ATCC 700057 [8]; 4- and 8-fold the MIC): 1.03 to 1.25 h | Postantibiotic effect (C. difficile ATCC 700057 [8]; 4× MIC): 1.03 h | Postantibiotic effect (C. difficile ATCC 700057 [8]; 8× MIC): 1.25 h | concentration needed for an undetectable level to be reached (C. difficile ATCC 700057 [3]): over 2 fold MIC | oral bioavailability [9]: < 10% | MBC Range ([4]; 10 clinical isolates): 4 to 8 µg/mL | MIC range [4, 18]: 2 to 4 µg/mL | MIC90 [4]: 4 µg/mL (≈ 2.76 µM) | MBC [4]: 8 µg/mL (≈ 5.52 µM) | MIC (C. difficile ATCC 700057 [10]; ATCC700057, pH 6): 2 µg/mL (≈ 1.38 µM) | MIC (C. difficile ATCC 700057 [10]; ATCC700057, pH 7): 2 µg/mL (≈ 1.38 µM) | MIC (C. difficile ATCC 700057 [10]; ATCC700057, pH 8): 2 µg/mL (≈ 1.38 µM) | MIC (C. difficile ATCC 700057 [5]; [19]): 4 µg/mL (≈ 2.76 µM) | MIC (C. difficile ATCC 700057 [5]; broth method, determined for the PAE assay): 4 µg/mL (≈ 2.76 µM) | MIC (C. difficile ATCC 43255 [11]): 2 µg/mL (≈ 1.38 µM) | 50% effective dose (ED50) (C. difficile ATCC 43255 [12]; survival on day 20, oral once daily for 5 days, probit method): 1.22 mg/kg/day | dosages with significant efficacy compared with vehicle control (C. difficile ATCC 43255 [12]; survival, log-rank test): ≥ 1 mg/kg | Frequency of spontaneous resistance (C. difficile ATCC 700057 [13]; 4× MIC): <9.17 × 10^–9 | Frequency of spontaneous resistance (C. difficile ATCC 700057 [13]; 16× MIC): <9.17 × 10^–9 | Frequency of spontaneous resistance (C. difficile ATCC 700057 [13]; 64× MIC): <9.17 × 10^–9

CCC[C@@H]1C[C@@H](C(=O)N[C@@H]([C@H]2O[C@H](SC)[C@H](O)[C@@H](O)[C@H]2O)[C@H](C)Cl)N(C)C1 [clindamycin]
MIC (C. difficile ATCC 43255 [14]): 8 µg/mL (≈ 18.8 µM)
